Here are results for 13 molecules from patent publication US9096593B2, “Compounds and methods for kinase modulation, and indications therefor” (Plexxikon Inc., priority 2009, dated 2015).

In one data set the target is BCR-FMS/BaF3 cells (Homo sapiens, UniProt P07333). As to the kind of experiment: BCR-FMS/BaF3 cell proliferation assay (ATPlite). The data set is classed as cell-based. As to the method: Compounds are assessed in a variety of cell based assays. For example BCR-FMS/BaF3, BCR-KIT/BaF3, M-NFS-60, M-07e, and BAC1.2F5 cell proliferation assays are used to assess inhibitory activity of Fms or Kit and MV-4-11 cell proliferation assay is used to assess inhibitory activity in Flt-3. […] On day 1, cells are counted, then centrifuged in a conical tube for 5 minutes at 1000 rpm. The supernatant is removed and cells are re-suspended as follows: • BCR-FMS/BaF3 and BCR-KIT/BaF3: resuspend in growth media+1 mg/mL G418 (without WEHI/IL-3) to 2×10^5 cells/mL. • M-NFS-60: resuspend in growth media +62 ng/mL murine M-CSF to 5×10^5 cells/mL. • M-07e: resuspend in growth media +200 ng/mL human SCF to 5×10^5 cells/mL. • BAC1.2F5: resuspend in growth media +36 ng/mL murine M-CSF to 1.4×10^5 cells/mL. • MV-4-11: resuspend in growth media +10% FBS to 5×10^5 cells/mL. […] On day 2, compound at a maximum concentration of 5 mM is serially diluted 1:3 for a total of 8 point titration with DMSO as a control. A 1 μL aliquot of each dilution point is added to 249 μL growth media and 50 μL is added to a well containing cells, providing 10 μM compound for the maximum concentration point. The cells are incubated for 3 days at 37° C. in 5% CO2. […] ATPlite is added to each well as follows: • BCR-FMS/BaF3 and BCR-KIT/BaF3: 25 μL per well. • M-NFS-60: 25 μL per well. • M-07c: 40 μL per well. • BAC1.2F5: 50 μL per well. • MV-4-11: 40 μL per well. The cells are incubated at room temperature for 10 minutes, then luminescence is read on Safire reader. The measured luminescence correlates directly with cell number, such that the reading as a function of compound concentration is used to determine the IC50 value.
Sequence of BCR-FMS/BaF3 cells (P07333 20-972 limits assumed, change not shown): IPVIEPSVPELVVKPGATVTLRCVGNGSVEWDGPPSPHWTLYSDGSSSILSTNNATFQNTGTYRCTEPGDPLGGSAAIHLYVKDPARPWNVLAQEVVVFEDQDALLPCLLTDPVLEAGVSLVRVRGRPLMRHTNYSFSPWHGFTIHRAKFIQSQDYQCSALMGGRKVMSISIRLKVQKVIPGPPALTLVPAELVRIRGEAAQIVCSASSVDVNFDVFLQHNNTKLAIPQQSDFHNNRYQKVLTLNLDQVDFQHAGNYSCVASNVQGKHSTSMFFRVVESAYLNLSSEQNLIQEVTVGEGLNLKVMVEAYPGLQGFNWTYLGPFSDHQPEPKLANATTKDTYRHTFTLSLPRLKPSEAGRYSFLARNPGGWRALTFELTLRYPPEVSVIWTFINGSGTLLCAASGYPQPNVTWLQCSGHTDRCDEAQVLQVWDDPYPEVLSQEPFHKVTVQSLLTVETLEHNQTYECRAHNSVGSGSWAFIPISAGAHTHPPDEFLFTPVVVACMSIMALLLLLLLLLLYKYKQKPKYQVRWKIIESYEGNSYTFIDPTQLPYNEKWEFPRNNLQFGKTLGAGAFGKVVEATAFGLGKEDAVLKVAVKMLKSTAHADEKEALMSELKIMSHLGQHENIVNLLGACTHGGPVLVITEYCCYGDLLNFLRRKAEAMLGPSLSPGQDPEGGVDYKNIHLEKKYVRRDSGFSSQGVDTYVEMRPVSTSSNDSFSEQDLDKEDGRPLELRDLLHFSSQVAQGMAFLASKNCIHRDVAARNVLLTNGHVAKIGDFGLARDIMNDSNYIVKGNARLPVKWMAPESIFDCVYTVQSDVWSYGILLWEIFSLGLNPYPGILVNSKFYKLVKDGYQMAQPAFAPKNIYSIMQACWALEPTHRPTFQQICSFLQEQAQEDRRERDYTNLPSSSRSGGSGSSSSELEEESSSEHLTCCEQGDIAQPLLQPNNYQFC

The target of the next data set is c-Kit kinase (Homo sapiens (Human), UniProt P10721). In words: c-Kit kinase biochemical activity assay (AlphaScreen, biotin-(E4Y)10 phosphorylation). As to the method:
In one assay the biochemical activity IC50 values are determined with respect to inhibition of c-Kit kinase activity, where inhibition of phosphorylation of a peptide substrate is measured as a function of compound concentration. Compounds to be tested are dissolved in DMSO to a concentration of 20 mM. These are diluted 30 μL into 120 μL of DMSO (4 mM) and 1 μL is added to an assay plate. These are then serially diluted […] (50 μL to 100 μL DMSO) for a total of 8 points. Plates are prepared such that each kinase reaction is 20 μL in 1× kinase buffer (25 mM HEPES, pH 7.5, 2 mM MgCl2, 2 mM MnCl2, 0.01% Tween-20, 1 mM DTT, 0.01% BSA), 5% DMSO and 100 μM ATP. Substrate is 30 nM biotin-(E4Y)10 (Millipore). C-kit kinase (obtained from Millipore (#14-559) or is prepared as described in U.S. Patent Application Publication Number 2009/0076046, the disclosure of which is hereby incorporated by reference as it relates to this assay) is at 0.75 ng per sample. After incubation of the kinase reaction for 1 hour at room temperature, 5 μL of donor beads (Streptavidin coated beads (Perkin Elmer Life Science) final concentration 10 μg/mL) in stop buffer (25 mM Hepes pH 7.5, 100 mM EDTA, 0.01% BSA) is added, the sample is mixed and incubated for 20 minutes at room temperature before adding 5 μL of acceptor beads (PY20 coated beads (Perkin Elmer Life Science) final concentration 10 μg/mL) in stop buffer. The samples are incubated for 60 minutes at room temperature and the signal per well is read on Envision reader. […] The signal vs. compound concentration is used to determine the IC50.
Background: Bead proximity is the source of the signal in Alpha formats.

Another data set has as its target CYP3A4(BQ) (Homo sapiens (Human), UniProt P08684). In words: CYP enzyme inhibition, fluorescent substrate. The protocol:
(§1) CYP (Cytochrome P450) enzymes are the major drug metabolizing enzymes present in the liver. The inhibition of CYP enzyme activity (IC50) for each of CYP1A2, CYP2C19, CYP2C9, CYP2D6, CYP3A4(BFC) and CYP3A4(BQ) is determined for compounds, where inhibition of metabolism of a known substrate leads to a decrease in the fluorescence of the metabolized product. The fluorescence of the product is monitored as a function of compound concentration.
(§2) Compounds are dissolved in DMSO to a concentration of 100 mM. These are diluted 1 μL into 82 μL of acetonitrile. An 11 μL aliquot of this solution is then added to 204 μL of cofactor mix (1.3% NADPH Regeneration system Solution A, 1.04% NADPH Regeneration system Solution B from BD Biosciences, 5% acetonitrile and 0.05% DMSO). These are then serially diluted 1:1 (160 μL to 160 μL co-factor mix) for a total of 10 points. A 10 μL aliquot of this final mixture is dispensed into 384 well assay plates and incubated for 10 minutes at 37° C. Enzyme and substrate mix (10 μL; […] CYP1A2/5 μM CEC; 1.0 μmol CYP2C9/75 μM MFC; […] CYP2C19/25 μM CEC; 1.5 μmol CYP2D6/1.5 μM AMMC; 1.0 μmol CYP3A4/50 μM BFC; or 1.0 μmol CYP3A4/40 μM BQ) is added to these assay plates. Assay plates are incubated at 37° C. (CYP1A2-15 min; CYP2C9-45 min; CYP2C19, 2D6 and 3A4-30 min) and read in a Tecan Safire 2 plate reader (CYP1A2, 2C19 and 3A4 409 ex/460 em; CYP2C9 and 2D6409 ex/530 em). The signal versus compound concentration is used to determine the IC50. The enzymes and substrates for this assay are obtained from BD Biosciences.

The target in the next data set is CYP1A2 (Homo sapiens (Human), UniProt P05177). As to the kind of experiment: CYP enzyme inhibition, fluorescent substrate. The conditions noted are these: human, 15 min. The protocol: as §1, §2
Sequence of CYP1A2 (P05177 whole entry): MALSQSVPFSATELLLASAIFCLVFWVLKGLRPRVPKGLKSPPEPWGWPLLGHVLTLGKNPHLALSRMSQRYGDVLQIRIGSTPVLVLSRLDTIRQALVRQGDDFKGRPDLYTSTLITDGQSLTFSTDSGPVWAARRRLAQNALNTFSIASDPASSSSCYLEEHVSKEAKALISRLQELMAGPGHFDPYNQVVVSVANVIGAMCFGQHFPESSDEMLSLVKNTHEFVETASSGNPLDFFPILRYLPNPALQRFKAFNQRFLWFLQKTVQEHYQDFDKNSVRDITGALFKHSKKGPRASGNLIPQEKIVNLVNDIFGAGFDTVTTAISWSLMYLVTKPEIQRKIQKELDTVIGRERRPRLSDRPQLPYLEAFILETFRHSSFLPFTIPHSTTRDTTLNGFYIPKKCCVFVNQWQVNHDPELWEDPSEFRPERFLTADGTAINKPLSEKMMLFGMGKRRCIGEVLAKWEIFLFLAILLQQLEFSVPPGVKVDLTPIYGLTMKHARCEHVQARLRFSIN
The target of the next data set is CYP2C9 (Homo sapiens (Human), UniProt P11712). In words: CYP enzyme inhibition, fluorescent substrate. The protocol:
as §1, §2

The target of another data set is CYP3A4(BFC) (Homo sapiens (Human), UniProt P08684). In words: CYP enzyme inhibition, fluorescent substrate. The conditions noted are these: read-out: Cyp IC50 (μM) 3A4(BFC); BFC substrate. The protocol:
as §1, §2

The mark [1] stands for this setting: BCR-FMS/BaF3 cells; read-out: BCR/BaF3 (IC50 μM) Fms.
The mark [2] stands for this setting: Kit IC50/Fms IC50, BCR-KIT/BaF3 vs BCR-FMS/BaF3 cells.
[3] abbreviates: read-out: BCR/BaF3 (IC50 μM) Fms; BCR-FMS/BaF3 cells.

Like-named read-outs stand apart in the source and are kept apart here. Some results are limits rather than exact numbers.

Sequence of c-Kit kinase (P10721 26-976): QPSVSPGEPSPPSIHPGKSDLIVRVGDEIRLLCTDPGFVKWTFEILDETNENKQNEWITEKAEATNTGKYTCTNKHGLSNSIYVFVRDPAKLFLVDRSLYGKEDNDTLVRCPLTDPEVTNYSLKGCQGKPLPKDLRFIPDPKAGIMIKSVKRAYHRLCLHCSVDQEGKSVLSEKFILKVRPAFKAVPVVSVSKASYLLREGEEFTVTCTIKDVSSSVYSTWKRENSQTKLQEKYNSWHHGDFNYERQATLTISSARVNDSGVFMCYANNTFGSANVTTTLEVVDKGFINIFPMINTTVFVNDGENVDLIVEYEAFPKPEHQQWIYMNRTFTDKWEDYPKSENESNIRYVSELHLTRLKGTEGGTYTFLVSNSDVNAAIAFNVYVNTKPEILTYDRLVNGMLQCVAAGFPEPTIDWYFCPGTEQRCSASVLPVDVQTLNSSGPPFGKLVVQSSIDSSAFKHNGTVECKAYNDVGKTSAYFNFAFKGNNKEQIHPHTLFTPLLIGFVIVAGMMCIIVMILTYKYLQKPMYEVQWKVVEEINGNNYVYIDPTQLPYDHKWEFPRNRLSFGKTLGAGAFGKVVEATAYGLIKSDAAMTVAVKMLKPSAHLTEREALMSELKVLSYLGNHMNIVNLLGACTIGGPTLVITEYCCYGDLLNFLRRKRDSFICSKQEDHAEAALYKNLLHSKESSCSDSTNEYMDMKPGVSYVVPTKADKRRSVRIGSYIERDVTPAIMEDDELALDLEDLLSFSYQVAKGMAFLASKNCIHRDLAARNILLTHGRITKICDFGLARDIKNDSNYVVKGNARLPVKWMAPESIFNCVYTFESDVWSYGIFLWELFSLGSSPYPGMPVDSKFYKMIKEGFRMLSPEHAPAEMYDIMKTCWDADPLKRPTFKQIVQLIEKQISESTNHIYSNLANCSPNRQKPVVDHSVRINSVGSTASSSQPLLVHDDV
Sequence of CYP2C9 (P11712 whole entry): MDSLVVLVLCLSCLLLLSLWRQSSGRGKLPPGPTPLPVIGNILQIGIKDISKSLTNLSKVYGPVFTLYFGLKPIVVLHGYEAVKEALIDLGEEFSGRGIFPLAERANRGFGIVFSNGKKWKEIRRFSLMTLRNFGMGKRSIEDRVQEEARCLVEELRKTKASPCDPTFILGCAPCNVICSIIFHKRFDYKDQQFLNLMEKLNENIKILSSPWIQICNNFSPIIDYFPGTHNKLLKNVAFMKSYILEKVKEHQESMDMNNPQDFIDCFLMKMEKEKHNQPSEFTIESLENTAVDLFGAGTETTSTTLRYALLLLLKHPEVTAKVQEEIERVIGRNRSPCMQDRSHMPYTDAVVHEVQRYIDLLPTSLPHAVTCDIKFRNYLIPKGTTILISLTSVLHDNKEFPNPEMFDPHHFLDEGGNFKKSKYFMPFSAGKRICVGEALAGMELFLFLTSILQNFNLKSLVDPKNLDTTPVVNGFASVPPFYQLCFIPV
Sequence of CYP3A4(BQ) (P08684 whole entry): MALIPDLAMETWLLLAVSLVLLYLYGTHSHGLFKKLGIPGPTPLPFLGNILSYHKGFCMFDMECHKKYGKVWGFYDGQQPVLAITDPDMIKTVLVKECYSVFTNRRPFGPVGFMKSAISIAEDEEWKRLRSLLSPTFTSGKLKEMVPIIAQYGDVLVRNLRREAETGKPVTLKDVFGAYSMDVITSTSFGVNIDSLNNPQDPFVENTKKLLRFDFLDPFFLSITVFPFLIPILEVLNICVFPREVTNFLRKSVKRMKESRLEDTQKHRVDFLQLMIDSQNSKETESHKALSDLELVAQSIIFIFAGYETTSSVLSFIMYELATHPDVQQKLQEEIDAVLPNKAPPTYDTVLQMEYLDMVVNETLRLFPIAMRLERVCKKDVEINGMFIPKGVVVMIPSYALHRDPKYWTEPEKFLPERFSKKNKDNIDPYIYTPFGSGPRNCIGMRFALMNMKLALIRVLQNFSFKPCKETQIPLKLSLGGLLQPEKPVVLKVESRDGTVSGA
Sequence of CYP3A4(BFC) (P08684 whole entry): as above

On to `COc1ccc(CNc2ncc(Cc3c[nH]c4ncc(C)cc34)cc2C)cn1` [Compound P-1554, (6-Methoxy-pyridin-3-ylmethyl)-[3-methyl-5-(5-methyl-1H-pyrrolo[2,3-b]pyridin-3-ylmethyl)-pyridin-2-yl]-amine], for which the IC50 on BCR-FMS/BaF3 cells (setting [1]) and against c-Kit kinase was < 0.1 µM each time. Besides, the “BCR/BaF3 selectivity (Kit IC50/Fms IC50)” value at BCR-FMS/BaF3 cells (setting [2]) is on record as <20.
As for `Fc1ccc(CNc2ncc(Cc3c[nH]c4ncc(Cl)cc34)cn2)cc1F` [Compound P-2008, [5-(5-Chloro-1H-pyrrolo[2,3-b]pyridin-3-ylmethyl)-pyrimidin-2-yl]-(3,4-difluoro-benzyl)-amine], the IC50 on BCR-FMS/BaF3 cells (setting [1]) and on c-Kit kinase was < 0.1 µM in each case. Also, the “BCR/BaF3 selectivity (Kit IC50/Fms IC50)” value on BCR-FMS/BaF3 cells (setting [2]) is listed as <20.
With `Cc1cccc(CNc2ncc(Cc3c[nH]c4ncc(Cl)cc34)cn2)c1` [Compound P-2013, [5-(5-Chloro-1H-pyrrolo[2,3-b]pyridin-3-ylmethyl)-pyrimidin-2-yl]-(3-methyl-benzyl)-amine], the IC50 on BCR-FMS/BaF3 cells (setting [1]) and at c-Kit kinase was < 0.1 µM in each case. Further, the “BCR/BaF3 selectivity (Kit IC50/Fms IC50)” value at BCR-FMS/BaF3 cells (setting [2]) is given as <20.
Turning to `COc1cnc2[nH]cc(Cc3ccc(NCc4ccccc4Cl)nc3F)c2c1` [Compound P-2034, (2-chloro-benzyl)-[6-fluoro-5-(5-methoxy-1H-pyrrolo[2,3-b]pyridin-3-ylmethyl)-pyridin-2-yl]-amine], at BCR-FMS/BaF3 cells (BCR-FMS/BaF3 cells, 3 days; read-out: Cell based (IC50 μM) BCR/BaF3 (Fms)), the IC50 was < 0.1 µM.
With `COc1cnc2[nH]cc(Cc3ccc(NCc4cccnc4OC)nc3F)c2c1` [Compound P-2043, [6-Fluoro-5-(5-methoxy-1H-pyrrolo[2,3-b]pyridin-3-ylmethyl)-pyridin-2-yl]-(2-methoxy-pyridin-3-ylmethyl)-amine], the “BCR/BaF3 selectivity (Kit IC50/Fms IC50)” value at BCR-FMS/BaF3 cells (setting [2]) was >20. Moreover, the IC50 at BCR-FMS/BaF3 cells (setting [3]) is < 0.1 µM; against CYP3A4(BQ), 5 to 10 µM; at CYP1A2, > 10 µM; against CYP2C9, 5 to 10 µM; on CYP3A4(BFC), > 10 µM.
As for `Fc1nc(NCc2ccc(Cl)cn2)ccc1Cc1c[nH]c2ncccc12` [Compound P-2044, (5-Chloro-pyridin-2-ylmethyl)-[6-fluoro-5-(1H-pyrrolo[2,3-b]pyridin-3-ylmethyl)-pyridin-2-yl]-amine], the IC50 on BCR-FMS/BaF3 cells (read-out: Cell based (IC50 μM) BCR/BaF3 (Fms); BCR-FMS/BaF3 cells, 3 days) was < 0.1 µM.
Consider `Cc1cnc2[nH]cc(Cc3ccc(NCc4cnccc4C(F)(F)F)nc3)c2c1` [Compound P-2070, [5-(5-Methyl-1H-pyrrolo[2,3-b]pyridin-3-ylmethyl)-pyridin-2-yl]-(4-trifluoromethyl-pyridin-3-ylmethyl)-amine], for which the IC50 on BCR-FMS/BaF3 cells (setting [1]) and against c-Kit kinase was < 0.1 µM in each case. On BCR-FMS/BaF3 cells (setting [2]), the “BCR/BaF3 selectivity (Kit IC50/Fms IC50)” value is listed as >20.
As to `Cc1cnc2[nH]cc(Cc3cnc(NCc4ccc(Cl)nc4)nc3)c2c1` [Compound P-2078, (6-Chloro-pyridin-3-ylmethyl)-[5-(5-methyl-1H-pyrrolo[2,3-b]pyridin-3-ylmethyl)-pyrimidin-2-yl]-amine], at BCR-FMS/BaF3 cells (setting [2]), the “BCR/BaF3 selectivity (Kit IC50/Fms IC50)” value was >20. Also, the IC50 at BCR-FMS/BaF3 cells (setting [3]) was < 0.1 µM; against c-Kit kinase, > 0.1 µM; at CYP1A2 (CYP1A2 enzyme (BD Biosciences)) it was > 10 µM; against CYP2C9 (human, 45 min), < 5 µM.
As to `Cc1cnc2[nH]cc(Cc3cnc(NCc4cccnc4OC4CCCC4)nc3)c2c1` [Compound P-2148, (2-Cyclopentyloxy-pyridin-3-ylmethyl)-[5-(5-methyl-1H-pyrrolo[2,3-b]pyridin-3-ylmethyl)-pyrimidin-2-yl]-amine], the values for the IC50 on BCR-FMS/BaF3 cells (setting [1]) and on c-Kit kinase were < 0.1 µM and > 0.1 µM, respectively. On BCR-FMS/BaF3 cells (setting [2]), the “BCR/BaF3 selectivity (Kit IC50/Fms IC50)” value is <20.
On the same counts, the results for `COc1ccc(CNc2ncc(Cc3c[nH]c4ncc(Cl)cc34)s2)cn1` [Compound P-2154, [5-(5-Chloro-1H-pyrrolo[2,3-b]pyridin-3-ylmethyl)-thiazol-2-yl]-(6-methoxy-pyridin-3-ylmethyl)-amine] are < 0.1 µM, < 0.1 µM and <20.
On the same counts, the results for `COc1cccc(CNc2ncc(Cc3c[nH]c4ncc(Cl)cc34)s2)n1` [Compound P-2163, [5-(5-Chloro-1H-pyrrolo[2,3-b]pyridin-3-ylmethyl)-thiazol-2-yl]-(6-methoxy-pyridin-2-ylmethyl)-amine] are < 0.1 µM, > 0.1 µM and <20.
As for `Fc1cncc(CNc2ncc(Cc3c[nH]c4ncc(Cl)cc34)cn2)c1` [Compound P-2176, [5-(5-Chloro-1H-pyrrolo[2,3-b]pyridin-3-ylmethyl)-pyrimidin-2-yl]-(5-fluoro-pyridin-3-ylmethyl)-amine], the “BCR/BaF3 selectivity (Kit IC50/Fms IC50)” value on BCR-FMS/BaF3 cells (setting [2]) is >20. Moreover, the values for the IC50 at BCR-FMS/BaF3 cells (setting [3]) and on c-Kit kinase were < 0.1 µM and > 0.1 µM, respectively.
Turning to `CCS(=O)(=O)Nc1cc(F)cc(CNc2ccc(Cc3c[nH]c4ncc(C)cc34)c(F)n2)c1` [Compound P-2202, Ethanesulfonic acid (3-fluoro-5-{[6-fluoro-5-(5-methyl-1H-pyrrolo[2,3-b]pyridin-3-ylmethyl)-pyridin-2-ylamino]-methyl}-phenyl)-amide], the figures for the IC50 on BCR-FMS/BaF3 cells (setting [1]) and at c-Kit kinase were < 0.1 µM and > 0.1 µM, respectively. Besides, at BCR-FMS/BaF3 cells (setting [2]), the “BCR/BaF3 selectivity (Kit IC50/Fms IC50)” value is reported as <20.
